# Reference: ChEMBL document CHEMBL3994655, “Methylsulfonyl benzothiazoles (MSBT) derivatives: Search for new potential antimicrobial and anticancer agents” (2017)
# How the values were obtained:
# Nakaseomyces glabratus [1] = assay: Antifungal activity against Candida glabrata H04 after 24 to 48 hrs by macro-broth dilution method; assay type: functional
# HeLa [2] = assay: Cytotoxicity against human HeLa cells assessed as cell growth at 10^-6 M after 48 hrs by SRB assay relative to control; assay type: functional; settings: read-out: Activity
# HeLa [3] = assay: Growth inhibition of human HeLa cells after 48 hrs by SRB assay; assay type: functional
# Pichia kudriavzevii [4] = assay: Antifungal activity against Candida krusei G06 after 24 to 48 hrs by macro-broth dilution method; assay type: functional
# HeLa [5] = assay: Cytotoxicity against human HeLa cells assessed as reduction in cell viability after 48 hrs by SRB assay; assay type: functional, cell-based
# Pseudomonas aeruginosa = assay: Antibacterial activity against Pseudomonas aeruginosa M5 after 24 to 48 hrs by macro-broth dilution method; assay type: functional
# Nakaseomyces glabratus [6] = assay: Antifungal activity against Candida glabrata H05 after 24 to 48 hrs by macro-broth dilution method; assay type: functional
# HeLa [7] = assay: Cytotoxicity against human HeLa cells assessed as cell growth at 10^-4 M after 48 hrs by SRB assay relative to control; assay type: functional; settings: read-out: Activity
# Pichia kudriavzevii [8] = assay: Antifungal activity against Candida krusei G03 after 24 to 48 hrs by macro-broth dilution method; assay type: functional
# Staphylococcus aureus [9] = assay: Antibacterial activity against Staphylococcus aureus 209P after 24 to 48 hrs by macro-broth dilution method; assay type: functional
# Candida albicans [10] = assay: Antifungal activity against Candida albicans A01 assessed as zone of inhibition at 5 mg/ml by agar well diffusion method; assay type: functional; settings: read-out: DIZ
# Candida albicans [11] = assay: Antifungal activity against Candida albicans A01 after 24 to 48 hrs by macro-broth dilution method; assay type: functional
# Escherichia coli [12] = assay: Antibacterial activity against Escherichia coli ATCC 35421 assessed as zone of inhibition at 5 mg/ml by agar well diffusion method; assay type: functional; settings: read-out: DIZ
# Staphylococcus aureus [13] = assay: Antibacterial activity against methicillin-resistant Staphylococcus aureus ATCC 33591 after 24 to 48 hrs by macro-broth dilution method; assay type: functional
# Candida albicans [14] = assay: Antifungal activity against Candida albicans A01 assessed as zone of inhibition at 1 mg/ml by agar well diffusion method; assay type: functional; settings: read-out: DIZ
# Candida albicans [15] = assay: Antifungal activity against Candida albicans ATCC 10231 after 24 to 48 hrs by macro-broth dilution method; assay type: functional
# Staphylococcus aureus [16] = assay: Antibacterial activity against methicillin-resistant Staphylococcus aureus 3710 after 24 to 48 hrs by macro-broth dilution method; assay type: functional
# HeLa [17] = assay: Cytotoxicity against human HeLa cells assessed as cell growth at 10^-5 M after 48 hrs by SRB assay relative to control; assay type: functional; settings: read-out: Activity
# Staphylococcus aureus [18] = assay: Antibacterial activity against Staphylococcus aureus 209P assessed as zone of inhibition at 1 mg/ml by agar well diffusion method; assay type: functional; settings: read-out: DIZ
# HeLa [19] = assay: Cytotoxicity against human HeLa cells assessed as cell growth at 10^-7 M after 48 hrs by SRB assay relative to control; assay type: functional; settings: read-out: Activity
# Escherichia coli [20] = assay: Antibacterial activity against Escherichia coli ATCC 20732 after 24 to 48 hrs by macro-broth dilution method; assay type: functional
# Staphylococcus aureus [21] = assay: Antibacterial activity against Staphylococcus aureus 209P assessed as zone of inhibition at 5 mg/ml by agar well diffusion method; assay type: functional; settings: read-out: DIZ
# Escherichia coli [22] = assay: Antibacterial activity against Escherichia coli ATCC 35421 after 24 to 48 hrs by macro-broth dilution method; assay type: functional
# Escherichia coli [23] = assay: Antibacterial activity against Escherichia coli ATCC 35421 assessed as zone of inhibition at 1 mg/ml by agar well diffusion method; assay type: functional; settings: read-out: DIZ
# [24] = test system: Staphylococcus epidermidis; assay: Antibacterial activity against Staphylococcus epidermidis 209E after 24 to 48 hrs by macro-broth dilution method; assay type: functional
smiles,measurement,setting,value
CS(=O)(=O)c1nc2cc(OCc3ccc(Cl)cc3)ccc2s1,MIC,Nakaseomyces glabratus [1],50 µg/mL
same,growth at 1 µM,HeLa [2],89.9%
same,GI50,HeLa [3],33 µM
same,LC50,HeLa [3],> 100 µM
same,TGI,HeLa [3],73.3 µM
same,growth inhibition (GI),HeLa [3],Dose-dependent effect
same,MIC,Pichia kudriavzevii [4],20 µg/mL
same,Activity,HeLa [5],Dose-dependent effect
same,MIC,Pseudomonas aeruginosa,50 µg/mL
same,MIC,Nakaseomyces glabratus [6],50 µg/mL
same,growth at 100 µM,HeLa [7],-50.5%
same,MIC,Pichia kudriavzevii [8],20 µg/mL
same,MIC,Staphylococcus aureus [9],100 µg/mL
same,zone of inhibition at 5000 µg/mL,Candida albicans [10],16 mm
same,MIC,Candida albicans [11],20 µg/mL
same,zone of inhibition at 5000 µg/mL,Escherichia coli [12],10 mm
same,MIC,Staphylococcus aureus [13],100 µg/mL
same,zone of inhibition at 1000 µg/mL,Candida albicans [14],9 mm
same,MIC,Candida albicans [15],20 µg/mL
same,MIC,Staphylococcus aureus [16],100 µg/mL
same,growth at 10 µM,HeLa [17],60.8%
same,zone of inhibition at 1000 µg/mL,Staphylococcus aureus [18],13 mm
same,growth at 0.1 µM,HeLa [19],100%
same,MIC,Escherichia coli [20],20 µg/mL
same,zone of inhibition at 5000 µg/mL,Staphylococcus aureus [21],22 mm
same,MIC,Escherichia coli [22],20 µg/mL
same,zone of inhibition at 1000 µg/mL,Escherichia coli [23],9 mm
same,MIC,[24],100 µg/mL
CCOc1ccc2sc(S(C)(=O)=O)nc2c1S(=O)(=O)Nc1ccc([N+](=O)[O-])cc1,growth at 1 µM,HeLa [2],46.2%
same,GI50,HeLa [3],0.22 µM
same,LC50,HeLa [3],81.5 µM
same,TGI,HeLa [3],40.8 µM
same,growth inhibition (GI),HeLa [3],Dose-dependent effect
same,Activity,HeLa [5],Dose-dependent effect
same,MIC,Pseudomonas aeruginosa,50 µg/mL
same,growth at 100 µM,HeLa [7],-67.8%
same,MIC,Staphylococcus aureus [9],10 µg/mL
same,zone of inhibition at 5000 µg/mL,Candida albicans [10],≤ 7 mm
same,zone of inhibition at 5000 µg/mL,Escherichia coli [12],10 mm
same,MIC,Staphylococcus aureus [13],10 µg/mL
same,zone of inhibition at 1000 µg/mL,Candida albicans [14],≤ 7 mm
same,MIC,Staphylococcus aureus [16],10 µg/mL
same,growth at 10 µM,HeLa [17],-12.3%
same,zone of inhibition at 1000 µg/mL,Staphylococcus aureus [18],14 mm
same,growth at 0.1 µM,HeLa [19],98.3%
same,MIC,Escherichia coli [20],20 µg/mL
same,zone of inhibition at 5000 µg/mL,Staphylococcus aureus [21],16 mm
same,MIC,Escherichia coli [22],20 µg/mL
same,zone of inhibition at 1000 µg/mL,Escherichia coli [23],9 mm
same,MIC,[24],10 µg/mL
CCOc1ccc2sc(S(C)(=O)=O)nc2c1N,MIC,Nakaseomyces glabratus [1],10 µg/mL
same,growth at 1 µM,HeLa [2],93%
same,GI50,HeLa [3],34 µM
same,LC50,HeLa [3],> 100 µM
same,TGI,HeLa [3],74.3 µM
same,growth inhibition (GI),HeLa [3],Dose-dependent effect
same,MIC,Pichia kudriavzevii [4],10 µg/mL
same,Activity,HeLa [5],Dose-dependent effect
same,MIC,Nakaseomyces glabratus [6],10 µg/mL
same,growth at 100 µM,HeLa [7],-31.9%
same,MIC,Pichia kudriavzevii [8],10 µg/mL
same,zone of inhibition at 5000 µg/mL,Candida albicans [10],19 mm
same,MIC,Candida albicans [11],8 µg/mL
same,zone of inhibition at 5000 µg/mL,Escherichia coli [12],≤ 7 mm
same,zone of inhibition at 1000 µg/mL,Candida albicans [14],≤ 7 mm
same,MIC,Candida albicans [15],4 µg/mL
same,growth at 10 µM,HeLa [17],65.6%
same,zone of inhibition at 1000 µg/mL,Staphylococcus aureus [18],17 mm
same,growth at 0.1 µM,HeLa [19],99.5%
same,zone of inhibition at 5000 µg/mL,Staphylococcus aureus [21],≤ 7 mm
same,zone of inhibition at 1000 µg/mL,Escherichia coli [23],≤ 7 mm
OC(Cn1cncn1)(Cn1cncn1)c1ccc(F)cc1F [FLUCONAZOLE],MIC,Nakaseomyces glabratus [1],2 µg/mL
same,MIC,Pichia kudriavzevii [4],2 µg/mL
same,MIC,Nakaseomyces glabratus [6],2 µg/mL
same,MIC,Pichia kudriavzevii [8],2 µg/mL
same,MIC,Candida albicans [11],4 µg/mL
same,MIC,Candida albicans [15],4 µg/mL
